Test results published in patent US7090853B2, “Noscapine derivatives as adjuvant compositions and methods of use thereof” (Emory University, priority 1999, dated 2006).
“Also recorded” adds a separate entry of the source. Marks after values point to notes of the source that are not given here.

Key:
human breast tumors = settings: nude mice; cited from earlier work
[1] = Histology and general toxicity in noscapine-treated mice; format: in vivo, B6 mice
Procedure: FIGS. 3A–3I show B6 mice were injected subcutaneously with 2×10^6 E.G7-OVA tumor cells and after three days half of the mice were treated continuously with 1.5 or 3.0 mg noscapine/ml of drinking water. All of the untreated mice developed tumors and were euthanized after three weeks. […] Normal B6 mice (A–C) and mice treated for 3 months with noscapine (D–F) were euthanized.
FIGS. 4A–4D show B6 mice were treated with 1.5 mg noscapine/ml in their drinking water or acidified water, as a negative control. One week later mice were injected with OVA in CFA. Mice were sacrificed two weeks later. […] Thus, Noscapine had no detectable toxic effect on lymphoid cells that are proliferating in response to immunization. […] The response of the gut to Noscapine is one of mild irritation. […]

human bladder tumors = settings: nude mice; cited from earlier work
HL-60 cells = assay: Apoptosis of HL-60 cells, DAPI staining of nuclear chromatin; format: cell-based; settings: for Apoptic Cell Percentage: 24 hours
Procedure: Morphological changes in the nuclear chromatin of HL-60 cells undergoing apoptosis were detected by staining with 4′,6-diamidino-2-phenylindole (DAPI). In brief, 0.5×10^6 to 3×10^6 cells were fixed with 4% glutaraledebyde, 0.2% Triton x-100, in PBS and incubated at room temperature for 10 min., then centrifuged at 1000×g for 10 min., resuspended in 20 μl 0.1% DAPI ethanol. Following 15 min, incubation at room temperature, at 10 μl aliquot was placed on a glass slide, and 400 cells per slide were scored for the incidence of apoptotic chromatin changes with a fluorescence microscope.

## COc1ccc2c(c1OC)C(=O)O[C@@H]2[C@H]1c2c(cc3c(c2OC)OCO3)CCN1C [Noscapine]
Human breast tumors
  regression of human breast tumors: caused regression
[1]; 1.5 mg noscapine/ml drinking water vs acidified water
  histology of small intestine: mild edema of the villi and goblet cell hyperplasia; also recorded: edema, increased frequency of goblet cells, and prominent crypt cells
[1]; 1.5 mg noscapine/ml drinking water vs acidified water, immunized with OVA in CFA
  histology of spleen / lymph nodes: no alterations from control mice; also recorded: no significant differences
[1]; 3.0 mg dose of noscapine
  liver inflammation: few small areas of inflammation
[1]; mouse, in vivo
  histological evidence of toxicity to the kidney, liver, or heart: no significant histological evidence of toxicity
[1]; noscapine in drinking water
  health, body weight and appearance: healthy and had normal weights and appearance; also recorded: healthy and of the same weight as the control mice
[1]; noscapine in drinking water vs control mice
  number of mitotic figures in the crypts of the small intestine: approximately equal
[1]; treated for 3 months with noscapine in drinking water, H & E
  histology of heart, kidney and liver: no significant differences
Human bladder tumors
  regression of human bladder tumors: caused regression
HL-60 cells; 20 μM in DMSO, two trials, result for each trial shown
  Apoptic Cell Percentage: 30.17† %
HL-60 cells; 50 μM in DMSO
  Apoptic Cell Percentage: 27%
HL-60 cells; DAPI staining
  Initiation of apoptosis: initiate apoptosis
